One compound from patent US7666882B2, “Anthranilamide insecticides” (E.I. du Pont de Nemours and Company, priority 2002, dated 2010) can be followed below.

The subject of the data set is potato leafhopper (Empoasca fabae Harris). Kind of data set: Test D: control of potato leafhopper through contact and/or systemic means on Longio bean plant. The data set is classed as in vivo. The settings on record: sprayed at 250 ppm, adults post-infested, 6 days, 19-21° C. How it is done: Test compounds were formulated using a solution containing 10% acetone, 90% water and 300 ppm X-77® Spreader Lo-Foam Formula non-ionic surfactant containing alkylarylpolyoxyethylene, free fatty acids, glycols and isopropanol (Loveland Industries, Inc.). The formulated compounds were applied in 1 mL of liquid through a SUJ2 atomizer nozzle with ⅛ JJ custom body (Spraying Systems Co.) positioned 1.27 cm (0.5 inches) above the top of each test unit. All experimental compounds in this screen were sprayed at 250 ppm, replicated three times. After spraying of the formulated test compound, each test unit was allowed to dry for 1 hour and then a black, screened cap was placed on top. The test units were held for 6 days in a growth chamber at 19-21° C. and 50-70% relative humidity. Each test unit was then visually assessed for insect mortality.
For evaluating control of potato leafhopper (Empoasca fabae Harris) through contact and/or systemic means, the test unit consisted of a small open container with a 5-6 day old Longio bean plant (primary leaves emerged) inside. White sand was added to the top of the soil and one of the primary leaves was excised prior to application. Test compounds were formulated and sprayed at 250 ppm and replicated three times as described for Test C. […] Each test unit was then visually assessed for insect mortality.

`CNC(=O)c1cc(Cl)cc(Cl)c1NC(=O)c1cc(OCC#N)nn1-c1ncccc1Cl` [Compound 11]: the insect mortality entry was “at least 80%”.
